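1) Cells in 96-well plates. 2) Compound, 48 h, 5 concentrations. 3) Linear interpolation between surrounding doses. 4) Unreached endpoint = highest concentration. At the TGI there is no net growth.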
How the values were obtained:
Assay in all cases: NCI anticancer screen, dose series, 48 h
HT29 colon = system: HT29 colon
SR leukemia = system: SR leukemia
MALME-3M melanoma = system: MALME-3M melanoma
T-47D breast = system: T-47D breast
U251 CNS = system: U251 CNS
HCT-116 colon = system: HCT-116 colon
NCI-H23 lung = system: NCI-H23 lung
NCI-H522 lung = system: NCI-H522 lung
NCI/ADR-RES ovarian = system: NCI/ADR-RES ovarian
SK-MEL-28 melanoma = system: SK-MEL-28 melanoma
PC-3 prostate = system: PC-3 prostate
RXF 393 renal = system: RXF 393 renal
K-562 leukemia = system: K-562 leukemia
CAKI-1 renal = system: CAKI-1 renal
MOLT-4 leukemia = system: MOLT-4 leukemia
SNB-19 CNS = system: SNB-19 CNS
SW-620 colon = system: SW-620 colon
SNB-75 CNS = system: SNB-75 CNS
IGROV1 ovarian = system: IGROV1 ovarian
DU-145 prostate = system: DU-145 prostate
SK-OV-3 ovarian = system: SK-OV-3 ovarian
TK-10 renal = system: TK-10 renal
UO-31 renal = system: UO-31 renal
UACC-257 melanoma = system: UACC-257 melanoma
786-0 renal = system: 786-0 renal
OVCAR-5 ovarian = system: OVCAR-5 ovarian
MDA-MB-435 = system: MDA-MB-435
HL-60(TB) leukemia = system: HL-60(TB) leukemia
SF-539 CNS = system: SF-539 CNS
HS 578T breast = system: HS 578T breast
ACHN renal = system: ACHN renal
MCF7 breast = system: MCF7 breast
KM12 colon = system: KM12 colon
LOX IMVI melanoma = system: LOX IMVI melanoma
M14 melanoma = system: M14 melanoma
COLO 205 colon = system: COLO 205 colon
SK-MEL-2 melanoma = system: SK-MEL-2 melanoma
OVCAR-3 ovarian = system: OVCAR-3 ovarian
SN12C renal = system: SN12C renal
OVCAR-4 ovarian = system: OVCAR-4 ovarian
HCT-15 colon = system: HCT-15 colon
A549 NSCLC = system: A549 NSCLC
NCI-H460 lung = system: NCI-H460 lung
UACC-62 melanoma = system: UACC-62 melanoma
SK-MEL-5 melanoma = system: SK-MEL-5 melanoma
SF-295 CNS = system: SF-295 CNS
EKVX NSCLC = system: EKVX NSCLC
NCI-H226 lung = system: NCI-H226 lung
MDA-MB-231 breast = system: MDA-MB-231 breast
HOP-62 NSCLC = system: HOP-62 NSCLC
OVCAR-8 ovarian = system: OVCAR-8 ovarian
SF-268 CNS = system: SF-268 CNS
RPMI-8226 leukemia = system: RPMI-8226 leukemia
HCC-2998 colon = system: HCC-2998 colon
BT-549 breast = system: BT-549 breast
CCRF-CEM leukemia = system: CCRF-CEM leukemia
HOP-92 NSCLC = system: HOP-92 NSCLC

Q: For `OCN(CO)c1ccc2c(c1)Cc1cc(F)ccc1-2`, which TGI (HT29 colon) is on record?
A: The TGI was 27.9 µM.

Q: What about the TGI (SR leukemia) of the same molecule?
A: Its TGI is 39.3 µM.

Q: What about the TGI (MALME-3M melanoma) of the same molecule?
A: The TGI was 52.4 µM.

Q: What about the TGI (T-47D breast) of the same molecule?
A: The TGI was 36.1 µM.

Q: And the TGI (U251 CNS)?
A: The TGI was 34.8 µM.

Q: What about the TGI (HCT-116 colon) of the same molecule?
A: Its TGI is over 100 µM.

Q: And the TGI (NCI-H23 lung)?
A: Its TGI is 93.7 µM.

Q: What about the TGI (NCI-H522 lung) of the same molecule?
A: The TGI was 37.4 µM.

Q: And the TGI (NCI/ADR-RES ovarian)?
A: Its TGI is 51.4 µM.

Q: What about the TGI (SK-MEL-28 melanoma) of the same molecule?
A: Its TGI is 88.7 µM.

Q: What about the TGI (PC-3 prostate) of the same molecule?
A: Its TGI is 36.2 µM.

Q: And the TGI (RXF 393 renal)?
A: Its TGI is over 100 µM.

Q: And the TGI (K-562 leukemia)?
A: The TGI was 39.9 µM.

Q: What about the TGI (CAKI-1 renal) of the same molecule?
A: Its TGI is 44.6 µM.

Q: And the TGI (MOLT-4 leukemia)?
A: Its TGI is 75.8 µM.

Q: And the TGI (SNB-19 CNS)?
A: Its TGI is 44 µM.

Q: And the TGI (SW-620 colon)?
A: The TGI was 25.4 µM.

Q: And the TGI (SNB-75 CNS)?
A: Its TGI is 56.3 µM.

Q: What about the TGI (IGROV1 ovarian) of the same molecule?
A: The TGI was 43 µM.

Q: What about the TGI (DU-145 prostate) of the same molecule?
A: The TGI was 50.2 µM.

Q: What about the TGI (SK-OV-3 ovarian) of the same molecule?
A: Its TGI is 95.9 µM.

Q: What about the TGI (TK-10 renal) of the same molecule?
A: Its TGI is 39.2 µM.

Q: And the TGI (UO-31 renal)?
A: The TGI was 59.9 µM.

Q: And the TGI (UACC-257 melanoma)?
A: The TGI was 37.2 µM.

Q: And the TGI (786-0 renal)?
A: The TGI was over 100 µM.

Q: And the TGI (OVCAR-5 ovarian)?
A: Its TGI is 46.8 µM.

Q: And the TGI (MDA-MB-435)?
A: Its TGI is 36.8 µM.

Q: And the TGI (HL-60(TB) leukemia)?
A: Its TGI is 78.4 µM.

Q: And the TGI (SF-539 CNS)?
A: Its TGI is 36.8 µM.

Q: What about the TGI (HS 578T breast) of the same molecule?
A: The TGI was 33.9 µM.

Q: And the TGI (ACHN renal)?
A: Its TGI is 36.4 µM.

Q: And the TGI (MCF7 breast)?
A: The TGI was 42.7 µM.

Q: And the TGI (KM12 colon)?
A: Its TGI is 35.4 µM.

Q: What about the TGI (LOX IMVI melanoma) of the same molecule?
A: Its TGI is 31.7 µM.

Q: And the TGI (M14 melanoma)?
A: Its TGI is 60.9 µM.

Q: And the TGI (COLO 205 colon)?
A: The TGI was 24.9 µM.

Q: What about the TGI (SK-MEL-2 melanoma) of the same molecule?
A: Its TGI is 45.9 µM.

Q: And the TGI (OVCAR-3 ovarian)?
A: The TGI was 27.4 µM.

Q: And the TGI (SN12C renal)?
A: Its TGI is 38.6 µM.

Q: What about the TGI (OVCAR-4 ovarian) of the same molecule?
A: The TGI was 45.7 µM.

Q: What about the TGI (HCT-15 colon) of the same molecule?
A: The TGI was 41.9 µM.

Q: What about the TGI (A549 NSCLC) of the same molecule?
A: The TGI was 47.3 µM.

Q: What about the TGI (NCI-H460 lung) of the same molecule?
A: Its TGI is 65.1 µM.

Q: What about the TGI (UACC-62 melanoma) of the same molecule?
A: Its TGI is 38.1 µM.

Q: And the TGI (SK-MEL-5 melanoma)?
A: Its TGI is 23.3 µM.

Q: And the TGI (SF-295 CNS)?
A: The TGI was 30.1 µM.

Q: What about the TGI (EKVX NSCLC) of the same molecule?
A: The TGI was 41.5 µM.

Q: And the TGI (NCI-H226 lung)?
A: The TGI was 40.3 µM.

Q: What about the TGI (MDA-MB-231 breast) of the same molecule?
A: Its TGI is 32.9 µM.

Q: And the TGI (HOP-62 NSCLC)?
A: Its TGI is over 100 µM.

Q: What about the TGI (OVCAR-8 ovarian) of the same molecule?
A: Its TGI is 40.5 µM.

Q: And the TGI (SF-268 CNS)?
A: The TGI was 81.3 µM.

Q: Which TGI (HT29 colon) does the source give for `CCOC(=O)c1ccc(N=C2S/C(=C\C(=S)Nc3ccccc3)N(c3ccccc3)C2=Nc2ccc(C(=O)OCC)cc2)cc1` here?
A: The TGI was over 100 µM.

Q: And the TGI (RPMI-8226 leukemia)?
A: The TGI was over 100 µM.

Q: What about the TGI (SR leukemia) of the same molecule?
A: Its TGI is over 100 µM.

Q: And the TGI (MALME-3M melanoma)?
A: Its TGI is 82.6 µM.

Q: And the TGI (HCC-2998 colon)?
A: The TGI was over 100 µM.

Q: And the TGI (HCT-116 colon)?
A: The TGI was over 100 µM.

Q: What about the TGI (NCI-H23 lung) of the same molecule?
A: Its TGI is over 100 µM.

Q: What about the TGI (SK-MEL-28 melanoma) of the same molecule?
A: Its TGI is over 100 µM.

Q: What about the TGI (PC-3 prostate) of the same molecule?
A: Its TGI is over 100 µM.

Q: And the TGI (RXF 393 renal)?
A: Its TGI is over 100 µM.

Q: What about the TGI (K-562 leukemia) of the same molecule?
A: Its TGI is over 100 µM.

Q: And the TGI (MOLT-4 leukemia)?
A: Its TGI is over 100 µM.

Q: What about the TGI (SNB-19 CNS) of the same molecule?
A: Its TGI is over 100 µM.

Q: What about the TGI (SW-620 colon) of the same molecule?
A: The TGI was over 100 µM.

Q: And the TGI (SNB-75 CNS)?
A: The TGI was over 100 µM.

Q: What about the TGI (IGROV1 ovarian) of the same molecule?
A: The TGI was over 100 µM.

Q: What about the TGI (TK-10 renal) of the same molecule?
A: The TGI was over 100 µM.

Q: And the TGI (UO-31 renal)?
A: The TGI was over 100 µM.

Q: What about the TGI (UACC-257 melanoma) of the same molecule?
A: Its TGI is over 100 µM.

Q: And the TGI (786-0 renal)?
A: The TGI was over 100 µM.

Q: And the TGI (BT-549 breast)?
A: Its TGI is over 100 µM.

Q: What about the TGI (HL-60(TB) leukemia) of the same molecule?
A: Its TGI is over 100 µM.

Q: And the TGI (CCRF-CEM leukemia)?
A: The TGI was over 100 µM.

Q: What about the TGI (HS 578T breast) of the same molecule?
A: The TGI was over 100 µM.

Q: And the TGI (MCF7 breast)?
A: The TGI was over 100 µM.

Q: What about the TGI (KM12 colon) of the same molecule?
A: Its TGI is over 100 µM.

Q: And the TGI (M14 melanoma)?
A: The TGI was over 100 µM.

Q: And the TGI (COLO 205 colon)?
A: Its TGI is over 100 µM.

Q: What about the TGI (SK-MEL-2 melanoma) of the same molecule?
A: Its TGI is over 100 µM.

Q: What about the TGI (SN12C renal) of the same molecule?
A: The TGI was over 100 µM.

Q: And the TGI (HOP-92 NSCLC)?
A: The TGI was over 100 µM.

Q: And the TGI (HCT-15 colon)?
A: The TGI was over 100 µM.

Q: And the TGI (A549 NSCLC)?
A: Its TGI is over 100 µM.

Q: What about the TGI (UACC-62 melanoma) of the same molecule?
A: Its TGI is over 100 µM.

Q: What about the TGI (SK-MEL-5 melanoma) of the same molecule?
A: Its TGI is over 100 µM.

Q: And the TGI (EKVX NSCLC)?
A: The TGI was over 100 µM.

Q: And the TGI (NCI-H226 lung)?
A: Its TGI is over 100 µM.

Q: And the TGI (MDA-MB-231 breast)?
A: The TGI was over 100 µM.

Q: And the TGI (HOP-62 NSCLC)?
A: The TGI was over 100 µM.

Q: And the TGI (OVCAR-8 ovarian)?
A: Its TGI is over 100 µM.

— PubChem BioAssay (NCI)
